Entries after “also recorded” stand apart in the source; their conditions may differ.
Assays:
[1] = recovered concentration compared to dosing concentration
Source text: Curve-fit the measured data to quantify the absorption and diffusion parameters.

[2] = Time-dependent material absorption test in vials, SEBS; assay type: physicochemical; conditions: for absorption into SEBS: recovered concentration compared to dosing concentration
Procedure: (§1) A method for ascertaining the absorption of a specific small-molecule into a polymer was developed. The output of this method are the fundamental parameters that fully define the absorption of a specific compound into the material tested; specifically, the diffusivity and partition coefficient are ascertained. […] The steps for ascertaining this absorption is as follows: • 1. Dissolve the small molecule in an aqueous phase (medium) and incubate the solution (30) with the tested material (31), such as in a vial (29). The incubation should be long enough so that diffusion is not limiting absorption and the transport into the material is at equilibrium with the transport of the compound out of the material and into the aqueous phase. • 2. Sample media from the vials at a number of time points. • 3. Measure the concentration of the small molecule remaining in the aqueous phase (30) using a mass spectrometer, plate reader, etc. from the media sampled. • 4. Curve-fit the measured data to quantify the absorption and diffusion parameters.
(§2) Each experiment includes a number of controls and test conditions. Using multiple controls and test conditions allows absorption to the vial and well-plate to be characterized, as well as absorption versus adsorption to the tested material, as well as yielding the time-dependent nature of absorption into the material. […] The goals of the experiments are to directly quantify partitioning of the compound, or compound loss at equilibrium (kinetics), and to directly quantify diffusion of the compound, or time-dependent compound loss (dynamics).
(§3) Single time point experiments are only capable of extracting kinetics, not dynamics. Time-dependent studies capture not only equilibrium endpoints (K), but also time-dependent changes/dynamics (D). One-dimensional computational models are used to fit experimental results of time-dependent studies. […] Once the particular curve is known, the parameters which defined that curve are taken as the fundamental parameters defining the material-compound absorptive interaction.

[3] = Time-dependent material absorption test in vials, PDMS; assay type: physicochemical; conditions: for absorption into PDMS: recovered concentration compared to dosing concentration
Procedure: as §1, §2, §3

[4] = Flow absorption study in PDMS microfluidic device / compound distribution kit; assay type: physicochemical
Source text: An exemplary method may follow the method of an intended experiment or study. As an example, the compound distribution kit may be used with microfluidic devices. An exemplary method for use with microfluidic devices may follow an intended study method with the following changes: no coatings, no cell seeding, and reduced number of compound doses. In one embodiment, there may not be a need to perform coatings on the microfluidic device that are related to biological aspects of the experiment. Some coatings, such as those that change the chemistry of the microfluidic device material makeup, may need to be done, especially if they may affect compound absorbency. It one embodiment, coatings are done with the compound distribution kit at the discretion of the user. In one embodiment, cell seeding is not needed. In one embodiment, if the intended-study protocol compares several concentrations of a test compound, the absorption control experiment need only be run for one of these concentrations. In one embodiment, it is recommended to use the highest compound concentration planned for the intended study, in order to maximize quantification (e.g. LCMS) sensitivity. However, a lower concentration of test compound may be selected if there are concerns about the compound's solubility limits or it crashing out of solution at the higher concentration. Crashing out of solution is when the concentration of a solute in a solution reaches a point where the solute precipitates. In one embodiment, the compound is dosed for the same duration, at the same flow rate, in the same microfluidic channel(s) as per the intended protocol, experiment or study. That is, if the intended study specifies dosing only in a first channel, with no compound in a second channel, then the same method would be applied during the use of the compound distribution kit. In one embodiment, media and solution should be the same during use of the compound distribution kit as in the intended study. In one embodiment, the same media or solution, as well as any additives or supplements, as medium composition and additives can interact with test compounds (e.g. protein binding). In one embodiment, media or solutions should also be equilibrated in the same manner, such as degassing and preheating. In one embodiment, effluent samples taken during use of the compound distribution kit should be collected at the same time as the intended study. Compound distribution can be a highly dynamic process, and as such matching time points may be able to ensure that the results of the compound distribution kit correspond closely to the intended study. […]

[5] = First round absorption study on Parylene coated SEBS and PDMS gaskets (plate reader); assay type: physicochemical; conditions: coating thickness 2 μm and 8 μm; exposure 0, 14, 40 and 72 hours
Source text: Two quantitative studies were run on Parylene coated materials in order to assess its effectiveness in minimizing small molecule absorbency. In the first study Parylene coated SEBS and Parylene coated PDMS were both exposed to Rhodamine B and Coumarin. In the second study the absorption of Parylene coated SEBS and Parylene coated E140 were compared to the absorption of known low-absorbing materials, such as glass and COP.
In the first round of absorption studies, SEBS and PDMS gaskets were coated with Parylene at two thicknesses: 2 μm and 8 μm. Parylene-coated gaskets were exposed to Rhodamine B and Coumarin for 0, 14, 40 and 72 hours. The remaining concentration of Rhodamine B and Coumarin in the exposure solution were measured on a plate reader. Each condition was tested on two gaskets. Limited replicates were available due to the number of conditions run. This “shotgun approach” was used in order to try many coating conditions and quickly determine the best options. […] FIG. 33B depicts the fraction of Rhodamine B recovered from the solutions for coatings of varying thickness on two materials known to absorb. […] One observation from the experiment was that the Parylene may crack, leading to gasket absorption. Another observation from the experiment was that Parylene adhesion to the PDMS and SEBS was poor, resulting in easy removal of Parylene. […]

[6] = Fluorescent molecule absorption in perfusion manifold assemblies under flow; assay type: physicochemical; conditions: 30 μL/hr for 38 hours
Procedure: Fluorescent molecule Rhodamine B (a fluorescent molecule that is also moderately absorbing into PDMS and SEBS) was dissolved in a buffer, flowed through a perfusion manifold assembly (14) and absorbing microfluidic device (12) fabricated out of PDMS at 30 μL/hr for 38 hours on a culture module. The perfusion manifold assemblies (14) were rinsed with buffer not containing the fluorescent molecule at 200 μL/hr for an hour before the start of the experiment.
Following the experiment, the perfusion manifold assemblies (14) were disassembled and the vias (35) of the capping, gasketing and backplane assembly or fluidic layer assembly (34), as well as the perfusion manifold assembly (14) resistors (27), were imaged with fluorescent microscopy. FIG. 25A depicts the resulting fluorescence in the fluidic layer assembly (34) of an absorbing perfusion manifold assembly (14) comprising a combined gasketing and capping layer (26). FIG. 25B depicts the resulting fluorescence on one aspect the invention described herein, a low-absorbing perfusion manifold assembly comprising both a low-absorbing capping and low-absorbing gasketing layer. In the embodiment of the perfusion manifold assembly (14) used in the experiment, the capping layer was fabricated from COP and the gasketing layer was fabricated out of SEBS coated with Parylene. Bright white colors in FIGS. 25A and 25B correlate to greater degree of absorption of the fluorescent molecule Rhodamine B.

[7] = Fluorescent imaging of Parylene-coated gaskets exposed to Rhodamine B; assay type: physicochemical
Source text: Parylene-coated PDMS gaskets were exposed to the fluorescent molecule Rhodamine B and fluorescently imaged. […] However, the absorption is primarily localized to areas with sharp corners. […] Parylene-coated SEBS gaskets were exposed to the fluorescent molecule Rhodamine B and fluorescently imaged as well. […] However, the absorption is primarily localized to areas with sharp corners. Some absorption can be seen inside of the via, but it was minimal, difficult to visualize, and quite possibly an optical artifact unrelated to absorption.

[8] = Second round absorption study: Parylene coated SEBS and E140 compared with glass, COP and control solution; assay type: physicochemical
Source text: Two quantitative studies were run on Parylene coated materials in order to assess its effectiveness in minimizing small molecule absorbency. In the first study Parylene coated SEBS and Parylene coated PDMS were both exposed to Rhodamine B and Coumarin. In the second study the absorption of Parylene coated SEBS and Parylene coated […] were compared to the absorption of known low-absorbing materials, such as glass and COP. In the second round of absorption studies, after parylene-coating process optimization, the absorption of Parylene coated SEBS and Parylene coated […] were compared to both the absorption of known low-absorbing materials, such as glass and COP, and a control solution of the drug not in contact with a material. The coated materials were exposed to a solution carrying a known concentration of the drug, Coumarin. The solution was tested three times to quantify the remaining concentration of the Coumarin, before exposure to the material, at 22 hours and at 92 hours. […] SEBS absorbed more of the compound than […].

[9] = Flow study of microfluidic device in fluidic communication with perfusion manifold assembly; assay type: physicochemical
Source text: FIGS. 98A and 98B show a comparison between a computational (COMSOL) model results and actual experimental results for cellular exposure ranges of the small-molecule compound Coumarin. […] For this experiment the microfluidic device was in fluidic communication with a perfusion manifold assembly. […] FIGS. 99A and 99B show a comparison between a computational (COMSOL) model results and actual experimental results for cellular exposure ranges of the small-molecule compound Coumarin. […] For this experiment the microfluidic device was in fluidic communication with a perfusion manifold assembly.

[10] = tested before exposure, at 22 hours and at 92 hours

CCc1cccc2cc(C(O)CNC(C)(C)C)oc12 (stereo not shown) [Bufuralol]
absorption into glass, polypropylene, polystyrene or COP [1]: did not absorb significantly
SEBS partition value (K) [2]: 4.77
absorption into SEBS [2]: absorbed somewhat
PDMS partition value (K) [3]: greater than 216
recovered concentration from the PDMS experiments ([3]; LCMS): below the lower limit of detection
absorption into PDMS [3]: absorbed almost entirely

Cc1ncc2n1-c1ccc(Cl)cc1C(c1ccccc1F)=NC2 [Midazolam]
absorption into glass, polypropylene, polystyrene or COP [1]: did not absorb significantly
SEBS partition value (K) [2]: 4.05
absorption into SEBS [2]: absorbed somewhat
PDMS partition value (K) [3]: 201
absorption into PDMS [3]: absorbed significantly

C=C(C)[C@@H]1CCC(C)=C[C@H]1c1c(O)cc(CCCCC)cc1O [CBD, cannabidiol]
measured outlet concentrations of the compound ([4]; microfluidic device fabricated entirely from PDMS): 0
absorption or loss of compound in microfluidic device fabricated from entirely PDMS ([4]; several flow rates, even at the highest flow rate): complete/total absorption or loss of compound

CN1C(=O)CN=C(c2ccccc2)c2cc(Cl)ccc21 [Diazepam]
fraction of Diazepam absorbed by PDMS ([3]; by hour 12 of contact with PDMS): ⅔ and two thirds

CN(C)CCC=C1c2ccccc2CCc2ccccc21 [amitriptyline]
absorption into PDMS [3]: absorb into PDMS

CCN(CC)c1ccc2c(-c3ccccc3C(=O)O)c3ccc(=[N+](CC)CC)cc-3oc2c1 [Rhodamine B]
absorption by Parylene coated PDMS and SEBS [5]: minimal Rhodamine B was absorbed
absorption in perfusion manifold assemblies with COP capping layer and Parylene coated SEBS gasketing layer [6]: did not absorb a significant amount
absorption in perfusion manifold assembly with COP capping layer and non-coated SEBS gasketing layer [6]: absorbed the fluorescent molecule
absorption in perfusion manifold assembly with combined gasketing and capping layer [6]: absorbed the fluorescent molecule
absorption in resistors capped with COP [6]: very little
absorption in resistors capped with SEBS [6]: relatively high extent
absorption in Parylene-coated SEBS gaskets (microscopy) [7]: some minimal absorption is present
absorption within the microfluidic device ports of Parylene-coated PDMS gaskets ([7]; ports leading into the channels): No absorption was seen
absorption in Parylene-coated PDMS gaskets (microscopy) ([7]; whole gasket): some absorption is present but localized to areas that might not have been fully coated
rate and extent of absorption ([4]; flow study outlet concentrations): lower rate of absorption, but higher extent of absorption

O=c1ccc2ccccc2o1 [Coumarin]
absorption by Parylene coated PDMS and SEBS [5]: some Coumarin was absorbed
absorption into materials coated with Parylene ([8]; Parylene coated SEBS and E140, 22 and 92 hours): do not absorb significant amounts
absorption into glass and COP compared to control solution [8, 10]: did not absorb
absorption into uncoated SEBS and E140 [8, 10]: both absorb; also recorded: SEBS absorbed more of the compound than E140
absorption into SEBS of the perfusion manifold assembly [9]: especially susceptible to absorption
effect of flow rate on absorption into PDMS ([4]; 60 μL/hr versus 150 μL/hr, bottom channel sampled): less compound is absorbed into PDMS at faster flow rates

From US12019083B2, “Compound distribution in microfluidic devices” (EMULATE, Inc., priority 2019, dated 2024)
